Eleven compounds from article PMC6017062, “Probing the Inhibitor versus Chaperone Properties of sp^2-Iminosugars towards Human β-Glucocerebrosidase: A Picomolar Chaperone for Gaucher Disease” (Molecules : A Journal of Synthetic Chemistry and Natural …, 2018) can be followed below.

Read-outs that look alike come from different tables or passages of the source.

Holding throughout (format): biochemical
Assay [1] concerns the target T1, α-glucosidase maltase (yeast maltase; α-Glcase1) (Saccharomyces cerevisiae, UniProt P53341).
T1 construct: purchased
The assay can be described thus: Commercial glycosidase inhibition: maltase (yeast maltase; α-Glcase1). The note with it: three determinations, competitive, n.i. = no inhibition detected at 1 mM. An excerpt:
(§1) We first evaluated the inhibitory properties of the new nonreducing mono- and bicyclic sp^2-iminosugars 4–15 against a panel of commercial glycosidases that included the α-glucosidases maltase (yeast maltase; α-Glcase1) and isomaltase (α-Glcase2) from Saccharomyces cerevisiae and amyloglucosidase (α-Glcase3) from Aspergillus niger, the β-glucosidases from almonds (β-Glcase1) and bovine liver (β-Glcase2), the α-galactosidase from green coffee beans (α-Galase), the β-galactosidase from Escherichia coli (β-Galase), and the α-mannosidase from Jack bean (α-Manase).
(§2) Inhibition constant (Ki) values were determined by spectrophotometrically measuring the residual hydrolytic activities of the glycosidases against the respective o- (for β-galactosidase from E. coli) or p-nitrophenyl α- or β-D-glycopyranoside (for other glycosidases) in the presence of the iminosugars. Each assay was performed in phosphate buffer or phosphate-citrate buffer (for α- or β-mannosidase and amyloglucosidase) at the optimal pH for the enzymes. The reactions were initiated by addition of the enzyme to a solution of the substrate in the absence or presence of various inhibitor concentrations. The mixture was incubated for 10–30 min at 37 °C or 55 °C (for amyloglucosidase) and the reaction was quenched by addition of 1 M Na2CO3. Reaction times were appropriate to obtain 10–20% conversion of the substrate in order to achieve linear rates. The absorbance of the resulting mixture was determined at 405 nm. Approximate value of Ki was determined from the slope of Dixon plots using a fixed concentration of substrate (around the Km value for the different glycosidases) and various concentrations of inhibitor. Full Ki determinations and enzyme inhibition mode were determined from the slope of Lineweaver–Burk plots and double reciprocal analysis.

For another assay, the target named is T2, isomaltase (α-Glcase2) (Saccharomyces cerevisiae, UniProt P53051).
T2 construct: purchased
T2 sequence (P53051 whole entry): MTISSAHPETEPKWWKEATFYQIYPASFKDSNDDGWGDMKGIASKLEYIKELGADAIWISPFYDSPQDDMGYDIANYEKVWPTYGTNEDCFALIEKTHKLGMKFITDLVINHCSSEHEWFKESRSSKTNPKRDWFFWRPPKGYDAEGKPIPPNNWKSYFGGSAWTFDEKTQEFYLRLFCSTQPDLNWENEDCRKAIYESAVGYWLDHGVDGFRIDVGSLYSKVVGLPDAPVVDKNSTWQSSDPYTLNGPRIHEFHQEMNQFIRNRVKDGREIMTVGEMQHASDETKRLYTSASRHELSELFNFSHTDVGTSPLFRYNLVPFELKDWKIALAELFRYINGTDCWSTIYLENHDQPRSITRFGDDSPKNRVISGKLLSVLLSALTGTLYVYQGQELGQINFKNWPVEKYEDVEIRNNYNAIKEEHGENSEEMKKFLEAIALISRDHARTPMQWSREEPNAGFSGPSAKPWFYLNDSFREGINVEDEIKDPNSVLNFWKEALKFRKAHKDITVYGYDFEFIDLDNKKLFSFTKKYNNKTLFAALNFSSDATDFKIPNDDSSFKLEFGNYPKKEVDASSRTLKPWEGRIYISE
Briefly: Commercial glycosidase inhibition: isomaltase (α-Glcase2).
Excerpt: as §1, §2

The target in assay [2] is T3, amyloglucosidase (α-Glcase3) (Aspergillus niger, UniProt P69328).
T3 construct: purchased
T3 sequence (P69328 25-640): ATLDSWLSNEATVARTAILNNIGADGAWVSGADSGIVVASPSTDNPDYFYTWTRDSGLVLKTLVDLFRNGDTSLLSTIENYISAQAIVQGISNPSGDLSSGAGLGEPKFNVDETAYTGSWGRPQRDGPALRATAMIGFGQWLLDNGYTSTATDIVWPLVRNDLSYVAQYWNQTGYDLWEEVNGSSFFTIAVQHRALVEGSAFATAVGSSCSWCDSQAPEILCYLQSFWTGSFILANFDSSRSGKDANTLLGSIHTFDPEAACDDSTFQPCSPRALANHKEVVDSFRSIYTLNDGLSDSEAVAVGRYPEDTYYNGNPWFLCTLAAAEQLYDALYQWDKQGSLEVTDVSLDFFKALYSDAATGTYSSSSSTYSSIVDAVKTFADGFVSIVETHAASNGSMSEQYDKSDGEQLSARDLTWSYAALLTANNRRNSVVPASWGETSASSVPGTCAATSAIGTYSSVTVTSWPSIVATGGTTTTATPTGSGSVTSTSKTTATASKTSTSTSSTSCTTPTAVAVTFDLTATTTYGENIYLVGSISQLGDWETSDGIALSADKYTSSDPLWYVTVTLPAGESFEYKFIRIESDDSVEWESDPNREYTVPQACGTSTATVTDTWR
Briefly: Commercial glycosidase inhibition: amyloglucosidase (α-Glcase3). The note with it: mean ± SD, three determinations; competitive; n.i. = no inhibition detected at 1 mM.
Excerpt: as §1, §2

The target of assay [3] is β-glucosidase from almonds (β-Glcase1). The assay can be described thus: Commercial glycosidase inhibition: β-glucosidase from almonds (β-Glcase1). The settings on record: mean ± SD, three determinations; competitive; n.i. = no inhibition detected at 1 mM.
Excerpt: as §1, §2

In assay [4] the target is T4, α-galactosidase from green coffee beans (α-Galase) (Coffea arabica, UniProt Q42656).
T4 construct: purchased
T4 sequence (Q42656 16-378): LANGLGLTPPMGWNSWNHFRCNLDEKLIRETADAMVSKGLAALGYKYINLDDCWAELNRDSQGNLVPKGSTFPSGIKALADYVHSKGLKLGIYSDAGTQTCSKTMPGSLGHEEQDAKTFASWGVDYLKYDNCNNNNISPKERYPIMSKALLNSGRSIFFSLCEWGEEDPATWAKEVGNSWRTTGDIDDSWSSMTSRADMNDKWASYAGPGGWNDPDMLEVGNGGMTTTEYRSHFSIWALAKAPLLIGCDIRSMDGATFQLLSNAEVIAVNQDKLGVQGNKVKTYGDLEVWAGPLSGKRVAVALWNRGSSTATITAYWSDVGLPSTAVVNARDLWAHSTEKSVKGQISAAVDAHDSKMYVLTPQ
Briefly: Commercial glycosidase inhibition: α-galactosidase from green coffee beans (α-Galase). The note with it: mean ± SD, three determinations; competitive; n.i. = no inhibition detected at 1 mM.
Excerpt: as §1, §2

For assay [5], the target named is T5, β-galactosidase (β-Galase) (Escherichia coli, UniProt P00722).
T5 construct: purchased
T5 sequence (P00722 2-1024 limits assumed): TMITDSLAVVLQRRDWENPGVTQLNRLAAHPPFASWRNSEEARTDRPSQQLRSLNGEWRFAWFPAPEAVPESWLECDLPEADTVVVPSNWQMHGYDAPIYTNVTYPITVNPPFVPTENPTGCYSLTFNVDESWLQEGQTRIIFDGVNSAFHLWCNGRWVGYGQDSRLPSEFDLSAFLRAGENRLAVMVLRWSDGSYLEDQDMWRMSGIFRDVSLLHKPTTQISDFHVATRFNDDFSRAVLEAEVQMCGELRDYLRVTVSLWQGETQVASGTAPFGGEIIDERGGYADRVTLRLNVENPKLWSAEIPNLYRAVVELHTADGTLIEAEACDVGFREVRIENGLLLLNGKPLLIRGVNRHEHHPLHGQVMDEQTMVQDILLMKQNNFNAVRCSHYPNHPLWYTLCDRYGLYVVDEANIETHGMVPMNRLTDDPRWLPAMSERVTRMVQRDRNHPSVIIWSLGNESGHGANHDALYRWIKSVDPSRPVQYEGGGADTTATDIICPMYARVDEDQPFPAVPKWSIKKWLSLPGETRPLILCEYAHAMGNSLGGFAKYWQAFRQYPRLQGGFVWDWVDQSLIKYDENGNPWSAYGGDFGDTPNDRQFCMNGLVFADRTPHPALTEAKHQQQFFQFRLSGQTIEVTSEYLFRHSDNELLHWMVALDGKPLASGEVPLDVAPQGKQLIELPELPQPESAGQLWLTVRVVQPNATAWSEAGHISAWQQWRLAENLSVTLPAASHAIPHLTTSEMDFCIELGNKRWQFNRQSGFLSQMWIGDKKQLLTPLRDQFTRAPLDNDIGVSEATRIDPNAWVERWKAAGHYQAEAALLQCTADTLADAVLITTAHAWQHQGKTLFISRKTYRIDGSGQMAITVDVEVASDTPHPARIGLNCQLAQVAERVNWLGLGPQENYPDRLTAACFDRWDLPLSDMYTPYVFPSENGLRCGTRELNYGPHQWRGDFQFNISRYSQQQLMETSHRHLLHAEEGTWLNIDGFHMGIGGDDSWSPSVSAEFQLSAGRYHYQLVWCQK
Briefly: Commercial glycosidase inhibition: β-galactosidase from E. coli (β-Galase). The note with it: mean ± SD, three determinations; competitive; n.i. = no inhibition detected at 1 mM.
Excerpt: as §1, §2

Assay [6] addresses T6, α-mannosidase from Jack bean (α-Manase) (Canavalia ensiformis, UniProt C0HJB3).
T6 construct: purchased
T6 sequence (C0HJB3 1-981): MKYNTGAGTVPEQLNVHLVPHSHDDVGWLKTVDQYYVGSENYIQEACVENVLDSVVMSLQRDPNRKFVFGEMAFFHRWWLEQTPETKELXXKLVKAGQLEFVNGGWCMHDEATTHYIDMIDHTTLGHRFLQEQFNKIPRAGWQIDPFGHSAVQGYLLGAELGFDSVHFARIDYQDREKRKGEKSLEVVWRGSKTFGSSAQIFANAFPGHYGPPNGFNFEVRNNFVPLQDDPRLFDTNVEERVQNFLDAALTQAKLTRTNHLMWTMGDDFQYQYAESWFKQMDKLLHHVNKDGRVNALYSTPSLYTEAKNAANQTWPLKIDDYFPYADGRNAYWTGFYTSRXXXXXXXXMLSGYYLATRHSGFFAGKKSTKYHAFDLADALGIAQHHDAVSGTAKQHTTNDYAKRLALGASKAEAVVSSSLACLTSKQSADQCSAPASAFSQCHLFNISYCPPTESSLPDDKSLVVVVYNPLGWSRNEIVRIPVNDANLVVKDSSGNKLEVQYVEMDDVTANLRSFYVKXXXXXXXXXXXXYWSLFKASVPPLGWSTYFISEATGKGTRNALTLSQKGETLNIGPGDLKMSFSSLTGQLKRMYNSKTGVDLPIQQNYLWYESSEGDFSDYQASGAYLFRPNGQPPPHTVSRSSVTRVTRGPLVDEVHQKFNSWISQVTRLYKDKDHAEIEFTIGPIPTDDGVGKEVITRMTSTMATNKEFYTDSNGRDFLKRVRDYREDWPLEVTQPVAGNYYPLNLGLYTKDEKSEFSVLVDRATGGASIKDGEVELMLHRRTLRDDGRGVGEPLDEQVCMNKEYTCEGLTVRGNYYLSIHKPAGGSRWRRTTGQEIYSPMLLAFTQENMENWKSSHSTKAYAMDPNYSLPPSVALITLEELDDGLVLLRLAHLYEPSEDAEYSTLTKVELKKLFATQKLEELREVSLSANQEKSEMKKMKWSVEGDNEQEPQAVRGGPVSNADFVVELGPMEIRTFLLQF
The assay can be described thus: Commercial glycosidase inhibition: α-mannosidase from Jack bean (α-Manase). The settings on record: mean ± SD, three determinations; competitive; n.i. = no inhibition detected at 1 mM.
Excerpt: as §1, §2

Where [7] appears, read: mean ± SD, three determinations, competitive, n.i. = no inhibition detected at 1 mM, read-out: Ki α-Glcase2.
[8] abbreviates: mean ± SD, three determinations, competitive, n.i. = no inhibition detected at 1 mM.
The mark [9] stands for this setting: Dixon or Lineweaver-Burk plot, read-out: Ki against isomaltase (supplement figure legends).

T1 sequence (P53341 whole entry): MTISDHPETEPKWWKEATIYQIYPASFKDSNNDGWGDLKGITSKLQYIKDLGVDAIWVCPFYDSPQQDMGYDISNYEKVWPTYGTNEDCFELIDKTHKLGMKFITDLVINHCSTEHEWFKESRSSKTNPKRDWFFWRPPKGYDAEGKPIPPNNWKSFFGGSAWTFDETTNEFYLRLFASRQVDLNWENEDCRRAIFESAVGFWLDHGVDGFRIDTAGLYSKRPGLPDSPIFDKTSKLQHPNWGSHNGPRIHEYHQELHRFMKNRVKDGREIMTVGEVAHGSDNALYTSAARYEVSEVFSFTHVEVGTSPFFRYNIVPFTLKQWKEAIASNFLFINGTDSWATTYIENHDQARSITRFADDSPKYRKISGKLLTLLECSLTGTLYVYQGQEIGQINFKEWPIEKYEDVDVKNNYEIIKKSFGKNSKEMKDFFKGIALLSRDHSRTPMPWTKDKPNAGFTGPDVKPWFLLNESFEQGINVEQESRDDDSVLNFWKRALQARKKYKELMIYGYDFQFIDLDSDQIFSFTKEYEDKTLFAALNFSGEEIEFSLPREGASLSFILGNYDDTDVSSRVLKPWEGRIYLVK

The term Ki denotes the equilibrium dissociation constant of an inhibitor or competing ligand from its target. Regarding `OC[C@H]1[C@@H](O)[C@H](O)[C@@H](O)CN1C(=S)Nc1ccccc1` [Compound 15, N-(N′-Phenylthiocarbamoyl)-1-deoxy-L-idonojirimycin], the Ki stood at 293 ± 18 µM in assay [1] (Ki α-Glcase1, mean ± SD); 443 ± 22 µM at isomaltase (α-Glcase2) (setting [7]); 271 ± 17 µM in assay [2]; 294 ± 18 µM in assay [3]; 77 ± 16 µM in assay [4]. For the same compound, in assay [5], the “Ki β-Galase” value is given as “n.i”. Further, in assay [6], the “Ki α-Manase” value is listed as “n.i”.
In the case of `CCCCN=C1SCC2C(O)C(O)C(O)CN12` (stereo not drawn) [Compound 5, 1-Deoxy-6-thio-5-N,6-S-(N′-butyliminomethylidene)nojirimycin], in assay [1] (mean ± SD), the “Ki α-Glcase1” value is given as “n.i”. For the same compound, at isomaltase (α-Glcase2) (setting [8]), the “Ki α-Glcase2” value is recorded as “n.i”. For the same compound, in assay [2], the “Ki α-Glcase3” value is “n.i”. Further, in assay [3], the Ki was 1.1 ± 0.1 µM. Moreover, the “Ki α-Galase” value in assay [4] is recorded as “n.i”. The “Ki β-Galase” value in assay [5] is listed as “n.i”. For the same compound, in assay [6], the “Ki α-Manase” value is on record as “n.i”.
In the case of `CCCCNC(=S)N1C[C@H](O)[C@@H](O)[C@H](O)[C@@H]1CO` [Compound 14, N-(N′-Butylthiocarbamoyl)-1-deoxy-L-idonojirimycin], the “Ki α-Glcase1” value in assay [1] (mean ± SD) was “n.i”. For the same compound, the “Ki α-Glcase2” value at isomaltase (α-Glcase2) (setting [8]) is “n.i”. For the same compound, in assay [2], the “Ki α-Glcase3” value is “n.i”. Moreover, in assay [3], the Ki was 51 ± 13 µM. For the same compound, the “Ki α-Galase” value in assay [4] is “n.i”. Moreover, in assay [5], the “Ki β-Galase” value is reported as “n.i”. In addition, the “Ki α-Manase” value in assay [6] is on record as “n.i”.
`CCCCCCCCNC(=S)N1C[C@H](O)[C@@H](O)[C@H](O)[C@@H]1CO` [Compound 13, N-(N′-Octylthiocarbamoyl)-1-deoxy-L-idonojirimycin]: the “Ki α-Glcase1” value in assay [1] (mean ± SD) is listed as “n.i”. The “Ki α-Glcase2” value on isomaltase (α-Glcase2) (setting [8]) is recorded as “n.i”. Further, the “Ki α-Glcase3” value in assay [2] is “n.i”. The values for the Ki in assay [3] and in assay [4] were 227 ± 13 µM and 60 ± 15 µM, respectively. Moreover, in assay [5], the “Ki β-Galase” value is listed as “n.i”. Also, in assay [6], the “Ki α-Manase” value is “n.i”.
For `OC1CN2C(=Nc3ccccc3)SCC2C(O)C1O` [Compound 9, 5-N,6-S-(N′-Phenyliminomethylidene)-6-thio-1-deoxy-L-idonojirimycin], the Ki amounted to 262 ± 15 µM in assay [1] (Ki α-Glcase1, mean ± SD); 309 ± 19 µM in assay [3]; 772 ± 35 µM in assay [4]. Further, the “Ki α-Glcase2” value on isomaltase (α-Glcase2) (setting [8]) is listed as “n.i”. The “Ki α-Glcase3” value in assay [2] is “n.i”. Besides, the “Ki β-Galase” value in assay [5] was “n.i”. For the same compound, the “Ki α-Manase” value in assay [6] is reported as “n.i”.
`CCCCNC(=S)N1C[C@H](O)[C@@H](O)[C@H](O)[C@H]1CO` [Compound 11, 1-Deoxy-N-(N′-butylthiocarbamoyl)nojirimicin]: the Ki came out at 568 ± 30 µM in assay [1] (mean ± SD, read-out: Ki α-Glcase1); 121 ± 9 µM at isomaltase (α-Glcase2) (setting [7]); 213 ± 18 µM in assay [2]; 20 ± 2 µM in assay [3]; 847 ± 42 µM in assay [4]. Further, in assay [5], the “Ki β-Galase” value is given as “n.i”. The “Ki α-Manase” value in assay [6] is on record as “n.i”.
As to `CCCCCCCCNC(=S)N1C[C@H](O)[C@@H](O)[C@H](O)[C@H]1CO` [Compound 10, 1-Deoxy-N-(N′-octylthiocarbamoyl)nojirimicin], the Ki in assay [1] (Ki α-Glcase1, mean ± SD) was 481 ± 27 µM; on isomaltase (α-Glcase2) (setting [7]) it was 116 ± 8 µM; in assay [2] it was 129 ± 10 µM; in assay [3], 1.3 ± 0.1 µM. Also, the “Ki α-Galase” value in assay [4] is reported as “n.i”. Moreover, in assay [5], the “Ki β-Galase” value is “n.i”. Also, in assay [6], the “Ki α-Manase” value was “n.i”.
As to `CCCCN=C1SCC2C(O)C(O)C(O)CN12` [Compound 8, 5-N,6-S-(N′-Butyliminomethylidene)-6-thio-1-deoxy-L-idonojirimycin], the “Ki α-Glcase1” value in assay [1] (mean ± SD) is recorded as “n.i”. The “Ki α-Glcase2” value on isomaltase (α-Glcase2) (setting [8]) was “n.i”. Also, the “Ki α-Glcase3” value in assay [2] is on record as “n.i”. In addition, in assay [3], the Ki is 19 ± 9 µM. For the same compound, the “Ki α-Galase” value in assay [4] is reported as “n.i”. The “Ki β-Galase” value in assay [5] is recorded as “n.i”. Also, the “Ki α-Manase” value in assay [6] is reported as “n.i”.
Turning to `OC[C@@H]1[C@@H](O)[C@H](O)[C@@H](O)CN1C(=S)Nc1ccccc1` [Compound 12, 1-Deoxy-N-(N′-phenylthiocarbamoyl)nojirimicin], the Ki in assay [1] (Ki α-Glcase1, mean ± SD) turned out to be 60 ± 4 µM; on isomaltase (α-Glcase2) (setting [9]) it was 18 ± 2 µM; on isomaltase (α-Glcase2) (setting [7]), 10 ± 1 µM; in assay [2], 18 ± 2 µM; in assay [3], 23 ± 3 µM; in assay [4] it was 122 ± 9 µM. The Ki in assay [6] was 294 ± 18 µM. In addition, in assay [5], the “Ki β-Galase” value was “n.i”.
On to `OC1CN2C(=Nc3ccccc3)SCC2C(O)C1O` (stereo not drawn) [Compound 6, 1-Deoxy-6-thio-5-N,6-S-(N′-phenyliminomethylidene)nojirimycin], for which the Ki in assay [1] (Ki α-Glcase1, mean ± SD) was 406 ± 20 µM; at isomaltase (α-Glcase2) (setting [9]) it was 44 ± 3 µM; in assay [2], 44 ± 3 µM; in assay [3] it was 48 ± 4 µM. Moreover, the “Ki α-Glcase2” value on isomaltase (α-Glcase2) (setting [8]) was “n.i”. The “Ki α-Galase” value in assay [4] was “n.i”. Besides, the “Ki β-Galase” value in assay [5] was “n.i”. Further, the “Ki α-Manase” value in assay [6] is listed as “n.i”.
As to `CCCCCCCCN=C1SCC2C(O)C(O)C(O)CN12` [Compound 7, 5-N,6-S-(N′-Octyliminomethylidene)-6-thio-1-deoxy-L-idonojirimycin], the “Ki α-Glcase1” value in assay [1] (mean ± SD) is recorded as “n.i”. Moreover, the “Ki α-Glcase2” value at isomaltase (α-Glcase2) (setting [8]) is “n.i”. Further, in assay [2], the “Ki α-Glcase3” value is reported as “n.i”. Moreover, the Ki stood at 3.9 ± 0.3 µM in assay [3] and 504 ± 32 µM in assay [4]. In assay [5], the “Ki β-Galase” value is given as “n.i”. Moreover, the “Ki α-Manase” value in assay [6] is “n.i”.
